Results taken from ChEMBL document CHEMBL5512656, “Tetrazole derivatives in the management of neurological disorders: Recent advances on synthesis and pharmacological aspects” (Eur J Med Chem, 2024).

How the values were obtained:
[1] = target: T1, Acetylcholinesterase (Electrophorus electricus, UniProt O42275); assay: Inhibition of electric eel AChE using acetylthiocholine iodide as substrate incubated for 30 mins by Ellman's method
[2] = target: T1, Acetylcholinesterase; assay: Inhibition of electric eel AChE using acetylthiocholine iodide as substrate preincubated for 15 mins followed by substrate addition and measured after 30 mins by Ellman's method
[3] = test system: Rattus norvegicus; assay: Anticonvulsant activity in po dosed MES induced Albino rat seizure model measured after 4 hrs; type: functional
[4] = test system: Rattus norvegicus; assay: Anticonvulsant activity in po dosed scPTZ induced Albino rat seizure model measured after 4 hrs; type: functional
[5] = Inhibition of 5-HT uptake in HEK293 cells transfected with human SERT at 1 uM by liquid scintillation counting analysis; type: functional
[6] = Inhibition of NE uptake in HEK293 cells transfected with human NET at 1 uM by liquid scintillation counting analysis; type: functional
[7] = Inhibition of DA uptake in HEK293 cells transfected with human DAT at 1 uM by liquid scintillation counting analysis; type: functional
[8] = Inhibition of 5-HT uptake in HEK293 cells transfected with human SERT by liquid scintillation counting analysis; type: functional, cell-based
[9] = Inhibition of NE uptake in HEK293 cells transfected with human NET by liquid scintillation counting analysis; type: functional, cell-based
[10] = Inhibition of DA uptake in HEK293 cells transfected with human DAT by liquid scintillation counting analysis; type: functional, cell-based
[11] = target: T1, Acetylcholinesterase; assay: Inhibition of electric eel AChE using acetylthiocholine iodide as substrate preincubated for 10 mins followed by substrate addition and measured after 15 mins by Ellman's method
[12] = target: Cholinesterase (Equus caballus, UniProt P81908); assay: Inhibition of equine serum BChE using butyrylthiocholine chloride as substrate preincubated for 10 mins followed by substrate addition and measured after 15 mins by Ellman's method
Cholinesterase, sequence (P81908 whole entry): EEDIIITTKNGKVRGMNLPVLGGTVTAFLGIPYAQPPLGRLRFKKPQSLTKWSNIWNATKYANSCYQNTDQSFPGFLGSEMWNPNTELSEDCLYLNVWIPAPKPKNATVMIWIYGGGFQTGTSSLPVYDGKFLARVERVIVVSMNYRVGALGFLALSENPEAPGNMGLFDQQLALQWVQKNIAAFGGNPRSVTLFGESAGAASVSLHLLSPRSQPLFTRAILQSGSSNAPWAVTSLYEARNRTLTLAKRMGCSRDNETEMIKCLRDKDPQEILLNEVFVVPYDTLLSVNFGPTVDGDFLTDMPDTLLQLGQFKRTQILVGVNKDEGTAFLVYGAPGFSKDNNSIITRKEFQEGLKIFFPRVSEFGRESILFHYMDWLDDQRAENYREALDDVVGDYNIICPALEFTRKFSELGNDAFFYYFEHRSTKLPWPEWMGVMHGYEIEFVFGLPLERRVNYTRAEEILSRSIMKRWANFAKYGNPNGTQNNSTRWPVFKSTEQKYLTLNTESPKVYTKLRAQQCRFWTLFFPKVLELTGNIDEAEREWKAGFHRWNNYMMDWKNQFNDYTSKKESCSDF

[13] = Cytotoxicity against mouse NIH/3T3 cells incubated for 24 hrs by MTT assay
[14] = test system: Mus musculus; assay: Anticonvulsant activity in ip dosed MES induced mouse seizure model measured after 0.5 and 4 hrs; type: functional
[15] = Neurotoxicity in ip dosed mouse by rotarod test; type: toxicity, organism-based; conditions: in vivo
[16] = test system: Mus musculus; assay: Anticonvulsant activity in ip dosed scPTZ induced Kunming mouse seizure model measured after 30 mins; type: functional; conditions: 0.5 h
[17] = test system: Mus musculus; assay: Antidepressant activity in Kunming mouse assessed as reduction in duration of immobility time at 50 mg/kg, ip by forced swim test; type: functional
[18] = test system: Mus musculus; assay: Antidepressant activity in Kunming mouse assessed as reduction in duration of immobility time at 40 mg/kg, ip by forced swim test; type: functional
[19] = test system: Mus musculus; assay: Antidepressant activity in Kunming mouse assessed as reduction in duration of immobility time at 30 mg/kg, ip by forced swim test; type: functional
[20] = test system: Mus musculus; assay: Anticonvulsant activity in ip dosed scPTZ induced Kunming mouse seizure model measured for 30 mins; type: functional; conditions: 0.5 h
[21] = test system: Mus musculus; assay: Anticonvulsant activity in ip dosed MES induced Kunming mouse seizure model; type: functional
[22] = test system: Mus musculus; assay: Anticonvulsant activity in ip dosed scPTZ induced Kunming mouse seizure model; type: functional
[23] = Protection index, ratio of TD50 for neurotoxicity in ip dosed Kunming mouse to ED50 for anticonvulsant activity in ip dosed Kunming mouse; type: toxicity, organism-based; conditions: in vivo, read-out: PI
[24] = test system: Mus musculus; assay: Anticonvulsant activity in ip dosed MES induced Kunming mouse seizure model measured after 0.5, 1, 2, and 4 hrs intervals; type: functional
[25] = Neurotoxicity in ip dosed Kunming mouse by rotarod test; type: toxicity, organism-based; conditions: in vivo
[26] = target: Acetylcholinesterase (Electrophorus electricus) (UniProt O42275); assay: Inhibition of electric eel AChE using acetylthiocholine iodide as substrate preincubated for 15 mins followed by substrate addition and measured after 30 mins by Ellman's method relative to control; conditions: time 45.0 min
Acetylcholinesterase (Electrophorus electricus), sequence (O42275 24-633 limits assumed): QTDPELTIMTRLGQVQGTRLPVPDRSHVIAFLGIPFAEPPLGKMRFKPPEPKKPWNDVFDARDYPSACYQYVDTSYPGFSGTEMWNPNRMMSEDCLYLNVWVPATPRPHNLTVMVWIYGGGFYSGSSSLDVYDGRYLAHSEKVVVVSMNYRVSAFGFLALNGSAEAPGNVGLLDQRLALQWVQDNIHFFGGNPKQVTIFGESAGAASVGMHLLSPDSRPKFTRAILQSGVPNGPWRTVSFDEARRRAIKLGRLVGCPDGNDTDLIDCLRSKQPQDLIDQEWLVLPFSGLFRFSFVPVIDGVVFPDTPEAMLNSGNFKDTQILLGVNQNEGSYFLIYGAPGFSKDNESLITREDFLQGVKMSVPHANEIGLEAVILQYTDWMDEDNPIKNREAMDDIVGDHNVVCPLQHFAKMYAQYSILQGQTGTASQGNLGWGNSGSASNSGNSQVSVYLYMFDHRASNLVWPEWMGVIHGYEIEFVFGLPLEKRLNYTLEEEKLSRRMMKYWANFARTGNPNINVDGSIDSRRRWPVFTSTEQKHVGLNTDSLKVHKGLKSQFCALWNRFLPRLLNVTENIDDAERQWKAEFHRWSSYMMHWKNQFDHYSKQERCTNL

[27] = test system: Mus musculus; assay: Anticonvulsant activity in po dosed MES induced Kunming mouse seizure model; type: functional
[28] = target: Cholinesterase (Equus caballus) (UniProt P81908); assay: Inhibition of equine serum BChE using butyrylthiocholine iodide as substrate preincubated for 15 mins followed by substrate addition and measured after 30 mins by Ellman's method relative to control; conditions: time 45.0 min
Cholinesterase (Equus caballus), sequence (P81908 whole entry): as the sequence (P81908 whole entry) above

[29] = Neurotoxicity in ip dosed Kunming mouse after 15 mins by rotarod test; type: toxicity, organism-based; conditions: in vivo

T1 sequence (O42275 whole entry): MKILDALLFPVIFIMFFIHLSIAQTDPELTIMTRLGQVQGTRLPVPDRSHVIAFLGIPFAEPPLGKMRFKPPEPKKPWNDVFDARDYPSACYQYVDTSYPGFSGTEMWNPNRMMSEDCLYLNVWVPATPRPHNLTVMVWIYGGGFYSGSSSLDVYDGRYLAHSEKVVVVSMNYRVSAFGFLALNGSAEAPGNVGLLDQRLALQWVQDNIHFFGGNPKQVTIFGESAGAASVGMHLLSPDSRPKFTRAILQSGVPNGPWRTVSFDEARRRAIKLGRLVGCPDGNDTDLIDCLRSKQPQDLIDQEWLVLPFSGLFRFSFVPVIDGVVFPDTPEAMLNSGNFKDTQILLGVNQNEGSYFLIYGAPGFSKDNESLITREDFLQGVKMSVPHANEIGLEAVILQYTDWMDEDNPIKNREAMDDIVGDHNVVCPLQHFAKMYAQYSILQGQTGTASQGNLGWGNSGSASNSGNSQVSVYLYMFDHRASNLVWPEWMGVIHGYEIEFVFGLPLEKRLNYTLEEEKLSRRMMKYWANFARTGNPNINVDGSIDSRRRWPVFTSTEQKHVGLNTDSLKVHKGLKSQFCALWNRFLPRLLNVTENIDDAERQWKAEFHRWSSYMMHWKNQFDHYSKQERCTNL

O=C1c2ccccc2C[C@@H]1Sc1nnnn1-c1ccc(F)cc1
IC50 [1]: 3.04 µM

O=C(CCCSc1nnnn1-c1ccccc1)N/N=C/c1ccccc1[N+](=O)[O-]
IC50 [2]: 54.7 µM

Cc1ccccc1-n1c(C)nc2c(OCc3nnn(Cc4ccc(-c5ccncc5)cc4)n3)cccc2c1=O
ED50 [3]: 12.9 mg/kg | ED50 [4]: > 100 mg/kg

Cc1ccccc1-n1nnnc1S[C@H]1Cc2ccccc2C1=O
IC50 [1]: 7.56 µM

O=C(CCCSc1nnnn1-c1ccccc1)N/N=C/c1cccc([N+](=O)[O-])c1
IC50 [2]: 42.5 µM

Clc1ccc(C(c2ccccc2)c2nnnn2CCCCN2CCC(Cc3ccccc3)CC2)cc1 (configuration not stated)
inhibition at 1 µM [5]: 88.9% | inhibition at 1 µM [6]: 58.9% | inhibition at 1 µM [7]: 67.8% | IC50 [8]: 0.09 µM | IC50 [9]: 0.78 µM | IC50 [10]: 0.55 µM

CC1(c2ccc(F)cc2)CC(c2ccc(F)cc2)=C(C#N)/C(=C(/C#N)c2nnn[nH]2)N1 (configuration not stated)
IC50 [11]: 2.01 µM | IC50 [12]: 38.8 µM

COc1ccc2c3c1O[C@H]1C[C@@H](O)C=C[C@@]31CCN(C)C2 [GALANTAMINE]
IC50 at 24 h ([13]; NIH/3T3 cells): 7.28 µM

Cc1ccccc1Cn1nnnc1-c1ccccc1C
ED50 [14]: 12.7 mg/kg | TD50 [15]: 500 mg/kg

O=C1c2ccccc2C[C@@H]1Sc1nnnn1-c1ccccc1F
IC50 [1]: 4.04 µM

Clc1ccccc1-c1nnn[nH]1
ED50 [16]: 83.3 mg/kg

COc1cc2c(cc1OC)C(=O)C(CC1CCN(Cc3ccccc3)CC1)C2 (configuration not stated) [DONEPEZIL]
IC50 at 24 h ([13]; nih3t3): 1.26 µM

Cc1cccc(-n2c(=O)c3ccccc3n3nnnc23)c1
Time [17]: 16.5 s

CNCCC(Oc1ccc(C(F)(F)F)cc1)c1ccccc1 (configuration not stated) [FLUOXETINE]
Time [17]: 17.83 s | Time [18]: 54.21 s | Time [19]: 61.3 s

CN(C)C(=O)Oc1cccc([N+](C)(C)C)c1 [NEOSTIGMINE]
IC50 [11]: 0.019 µM | IC50 [12]: 8.41 µM

Cc1ccccc1-c1nnnn1Cc1cccc(F)c1
ED50 [14]: 39.9 mg/kg | TD50 [15]: 450 mg/kg

CCCCCCOc1nc2nnnn2c2ccccc12
Time [19]: 62.2 s

O=C1c2ccccc2C[C@@H]1Sc1nnnn1-c1cccc([N+](=O)[O-])c1
IC50 [1]: 2.86 µM

O=C(CCCSc1nnnn1-c1ccccc1)N/N=C/c1cccc(O)c1
IC50 at 24 h ([13]; NIH/3T3 cells): 105 µM | IC50 [2]: 76.5 µM

Fc1ccc(C(c2ccc(F)cc2)c2nnnn2CCCCN2CCC(Cc3ccccc3)CC2)cc1
inhibition at 1 µM [5]: 77.6% | inhibition at 1 µM [6]: 81% | inhibition at 1 µM [7]: 92.3% | IC50 [8]: 0.453 µM | IC50 [9]: 0.298 µM | IC50 [10]: 0.058 µM

Cc1ccc(-n2c(=O)c3ccccc3n3nnnc23)cc1
Time [17]: 11.83 s

O=C1NC(=O)C(c2ccccc2)(c2ccccc2)N1 [PHENYTOIN]
ED50 [3]: 28.1 mg/kg | ED50 [4]: > 500 mg/kg

FC(F)(F)c1ccccc1C1Cc2nnnn2-c2ccsc21 (configuration not stated)
ED50 [14]: 19 mg/kg | ED50 [20]: 26.2 mg/kg | Time [18]: 68.43 s

NC(=O)O[C@@H](Cn1ncnn1)c1ccccc1Cl [CENOBAMATE]
ED50 [21]: 9.8 mg/kg | ED50 [22]: 28.5 mg/kg

Cc1ccccc1-c1nn[nH]n1
selectivity ratio [23]: 19.7 | ED50 [24]: 9.6 mg/kg | TD50 [25]: 190 mg/kg

COc1ccccc1C1=C(C#N)/C(=C(/C#N)c2nnn[nH]2)NC(C)(c2ccccc2OC)C1 (configuration not stated)
IC50 [11]: 19.3 µM | IC50 [12]: 0.29 µM

COc1ccc(Oc2nc3nnnn3c3ccccc23)cc1
Time [19]: 85.2 s

O=[N+]([O-])c1cccc(/C=N/NCCCCc2nnnn2-c2ccccc2)c1
inhibition [26]: 98.5% | IC50 at 24 h ([13]; NIH/3T3 cells): 51.7 µg/mL

CCCCCOc1nc2nnnn2c2ccccc12
Time [19]: 112.3 s

CCC1(C)CC(=O)NC1=O (configuration not stated) [ETHOSUXIMIDE]
ED50 [20]: 106 mg/kg | ED50 [3]: > 500 mg/kg | ED50 [4]: 167 mg/kg

Cc1ccccc1-n1c(C)nc2c(OCc3nnn(C(=O)c4ccc(N)cc4)n3)cccc2c1=O
ED50 [3]: 10.9 mg/kg | ED50 [4]: 48.4 mg/kg

O=C1c2ccccc2C[C@@H]1Sc1nnnn1-c1cccc(F)c1
IC50 [1]: 2.63 µM

FC(F)(F)c1ccc(C2Cc3nnnn3-c3ccsc32)cc1 (configuration not stated)
ED50 [14]: 23.4 mg/kg | ED50 [20]: 64.7 mg/kg | Time [18]: 51.43 s

FC(F)(F)c1cccc(C2Cc3nnnn3-c3ccsc32)c1 (configuration not stated)
Time [18]: 73.63 s

O=C1c2ccccc2C[C@@H]1Sc1nnnn1-c1ccc([N+](=O)[O-])cc1
IC50 [1]: 6.67 µM

O=[N+]([O-])c1ccccc1/C=N/NCCCCc1nnnn1-c1ccccc1
inhibition [26]: 92% | IC50 at 24 h ([13]; NIH/3T3 cells): 55 µg/mL

NC(=O)N1c2ccccc2C=Cc2ccccc21 [CARBAMAZEPINE]
ED50 [14]: 11.8 mg/kg | ED50 [27]: 27.3 mg/kg

COc1ccc(C2Cc3nnnn3-c3ccsc32)cc1 (configuration not stated)
ED50 [14]: 44 mg/kg | ED50 [20]: 65.5 mg/kg

Cc1ccccc1-n1c(C)nc2c(OCc3nnn(S(=O)(=O)c4ccc(N)cc4)n3)cccc2c1=O
ED50 [3]: 4.93 mg/kg | ED50 [4]: 72.3 mg/kg

O=c1c2ccccc2n2nnnc2n1-c1ccccc1F
Time [17]: 14.67 s

Clc1ccc(C2Cc3nnnn3-c3ccsc32)cc1 (configuration not stated)
ED50 [14]: 9.5 mg/kg | ED50 [20]: 20.5 mg/kg

Oc1cccc(/C=N/NCCCCc2nnnn2-c2ccccc2)c1
inhibition [28]: 51.3%

Clc1ccc(Oc2nn3nnnc3c3ccccc23)cc1
ED50 [21]: 6.8 mg/kg | TD50 at 0.25 h [29]: 456 mg/kg | selectivity ratio [23]: 67.1 | ED50 [27]: 24 mg/kg
